Laboratory results as given in patent US20250215013A1, “SUBSTITUTED TRICYCLIC COMPOUNDS AS PARP INHIBITORS AND THE USE THEREOF” (IMPACT THERAPEUTICS (SHANGHAI), INC., priority 2022, published 2025).

Experiments:
[1] = molecular target: recombinant poly(ADP-ribose) polymerase 2 (PARP2); experiment: PARP2 chemiluminescent assay; type: biochemical; conditions: inhibition of PARP2 enzyme activity, chemiluminescence
MDA-MB-436 cells = experiment: Growth inhibition assay against BRCA mutant human breast cancer MDA-MB-436 cell line (CCK-8); type: cell-based; conditions: proliferation of MDA-MB-436 cells, 7 days
[2] = molecular target: recombinant poly(ADP-ribose) polymerase 1 (PARP1) (Homo sapiens (Human), UniProt P09874)
Chain of recombinant poly(ADP-ribose) polymerase 1 (PARP1) (P09874 whole entry): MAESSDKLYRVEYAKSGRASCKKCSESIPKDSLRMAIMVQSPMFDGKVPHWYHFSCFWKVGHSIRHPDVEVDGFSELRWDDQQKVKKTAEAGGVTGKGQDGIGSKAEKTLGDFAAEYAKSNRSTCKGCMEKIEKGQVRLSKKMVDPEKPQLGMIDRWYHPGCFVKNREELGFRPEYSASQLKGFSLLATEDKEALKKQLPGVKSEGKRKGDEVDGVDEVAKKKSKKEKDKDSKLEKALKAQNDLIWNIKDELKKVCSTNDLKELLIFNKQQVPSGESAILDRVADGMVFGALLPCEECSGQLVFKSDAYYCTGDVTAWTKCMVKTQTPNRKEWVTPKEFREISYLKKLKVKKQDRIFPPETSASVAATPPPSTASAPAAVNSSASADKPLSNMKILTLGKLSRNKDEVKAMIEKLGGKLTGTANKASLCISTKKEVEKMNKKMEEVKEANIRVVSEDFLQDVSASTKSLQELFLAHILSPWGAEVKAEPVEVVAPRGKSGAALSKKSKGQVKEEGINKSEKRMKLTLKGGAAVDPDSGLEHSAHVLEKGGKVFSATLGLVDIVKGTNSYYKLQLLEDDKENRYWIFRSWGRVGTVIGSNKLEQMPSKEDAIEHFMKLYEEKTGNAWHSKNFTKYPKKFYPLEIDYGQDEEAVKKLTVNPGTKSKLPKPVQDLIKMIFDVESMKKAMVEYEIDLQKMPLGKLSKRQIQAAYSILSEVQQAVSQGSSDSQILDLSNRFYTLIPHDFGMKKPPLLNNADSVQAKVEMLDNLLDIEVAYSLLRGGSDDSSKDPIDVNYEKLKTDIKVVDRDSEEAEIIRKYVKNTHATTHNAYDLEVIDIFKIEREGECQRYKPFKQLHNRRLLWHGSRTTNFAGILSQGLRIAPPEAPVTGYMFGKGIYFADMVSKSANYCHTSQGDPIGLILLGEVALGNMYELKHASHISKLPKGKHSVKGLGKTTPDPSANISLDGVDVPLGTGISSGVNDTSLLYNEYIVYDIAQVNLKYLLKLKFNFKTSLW

Row | Compound | IC50 [1] [nM] | IC50 (MDA-MB-436 cells; Homo sapiens, MDA-MB-436, […]) [nM] | IC50 [2] [nM] | IC50 (MDA-MB-436 cells) [nM]
1 | CNC(=O)c1ccc(N2CCN(Cc3ccc4c([nH]c(=O)n5ccnc45)c3F)CC2)c(F)n1 [Example 61, 8-((4-(2-fluoro-6-(methylcarbamoyl)pyridin-3-yl)piperazin-1-yl)methyl)-7-fluoroimidazo[1,2-c]quinazolin-5(6H)-one] | 7260 | 17.4 | 2.23 | –
2 | CCNC(=O)c1ccc(N2CCN(Cc3ccc4c([nH]c(=O)n5ccnc45)c3F)CC2)c(F)n1 [Example 62, 8-((4-(2-fluoro-6-(ethylcarbamoyl)pyridin-3-yl)piperazin-1-yl)methyl)-7-fluoroimidazo[1,2-c]quinazolin-5(6H)-one] | > 10000 | 46.7 | 3.49 | –
3 | CCNC(=O)c1ccc(N2CCN(Cc3ccc4c([nH]c(=O)n5ccnc45)c3F)CC2)c(C)n1 [Example 63, 8-((4-(2-methyl-6-(ethylcarbamoyl)pyridin-3-yl)piperazin-1-yl)methyl)-7-fluoroimidazo[1,2-c]quinazolin-5(6H)-one] | > 10000 | 53.7 | 3.86 | –
4 | O=C(NC1CC1)c1ccc(N2CCN(Cc3ccc4c([nH]c(=O)n5ccnc45)c3F)CC2)c(F)n1 [Example 64, 8-((4-(2-fluoro-6-(cyclopropylcarbamoyl)pyridin-3-yl)piperazin-1-yl)methyl)-7-fluoroimidazo[1,2-c]quinazolin-5(6H)-one] | 5450 | 52.6 | 2.73 | –
5 | Cc1nc(C(=O)NC2CC2)ccc1N1CCN(Cc2ccc3c([nH]c(=O)n4ccnc34)c2F)CC1 [Example 65, 8-((4-(2-methyl-6-(cyclopropylcarbamoyl)pyridin-3-yl)piperazin-1-yl)methyl)-7-fluoroimidazo[1,2-c]quinazolin-5(6H)-one] | > 10000 | 53.8 | 4.53 | –
6 | CNC(=O)c1ccc(N2CCN(Cc3ccc4c(c3)[nH]c(=O)c3nn(C)cc34)CC2)c(C)n1 [Example 69, 7-((4-(2-methyl-6-(methylcarbamoyl)pyridin-3-yl)piperazin-1-yl)methyl)-2-methyl-2,5-dihydro-4H-pyrazolo[3,4-c]quinolin-4-one] | 5780 | 4.66 | 0.77 | –
7 | CNC(=O)c1ccc(N2CCN(Cc3ccc4c(c3)[nH]c(=O)c3c4cnn3C)CC2)c(C)n1 [Example 71, 7-((4-(2-methyl-6-(methylcarbamoyl)pyridin-3-yl)piperazin-1-yl)methyl)-3-methyl-3,5-dihydro-4H-pyrazolo[3,4-c]quinolin-4-one] | 636 | 11 | 3.3 | –
8 | CNC(=O)c1ccc(N2CCN(Cc3ccc4c([nH]c(=O)n5nccc45)c3F)CC2)c(C)n1 [Example 72, 8-((4-(2-methyl-6-(methylcarbamoyl)pyridin-3-yl)piperazin-1-yl)methyl)-7-fluoropyrazolo[1,5-c]quinazolin-5(6H)-one] | 1830 | – | 1.08 | 29
9 | CNC(=O)c1ccc(N2CCN(Cc3ccc4c5c(c(=O)[nH]c4c3)CNC5)CC2)c(C)n1 [Example 74, 7-((4-(6-methylcarbamoyl-2-methylpyridin-3-yl)piperazin-1-yl)methyl)-1,2,3,5-tetrahydro-4H-pyrrolo[3,4-c]quinolin-4-one] | 2980 | 58.2 | 3.31 | –
10 | CNC(=O)c1ccc(N2CCN(Cc3ccc4c5c(c(=O)[nH]c4c3)CN(C)C5)CC2)c(C)n1 [Example 75, 7-((4-(6-methylcarbamoyl-2-methylpyridin-3-yl)piperazin-1-yl)methyl)-2-methyl-1,2,3,5-tetrahydro-4H-pyrrolo[3,4-c]quinolin-4-one] | 2380 | 11.1 | 8.38 | –
11 | CNC(=O)c1ccc(N2CCN(Cc3cc4[nH]c(=O)c5cn(C)nc5c4cc3F)CC2)c(C)n1 [Example 89, 7-((4-(2-methyl-6-(methylcarbamoyl)pyridin-3-yl)piperazin-1-yl)methyl)-8-fluoro-2-methyl-2,5-dihydro-4H-pyrazolo[4,3-c]quinolin-4-one] | 3410 | 11.9 | 5.81 | –
12 | CNC(=O)c1ccc(N2CCN(Cc3cc4[nH]c(=O)c5cn(C)nc5c4cc3F)CC2)c(F)n1 [Example 91, 7-((4-(2-fluoro-6-(methylcarbamoyl)pyridin-3-yl)piperazin-1-yl)methyl)-8-fluoro-2-methyl-2,5-dihydro-4H-pyrazolo[4,3-c]quinolin-4-one] | 942 | 20.8 | 4.25 | –
13 | CNC(=O)c1ccc(N2CCN(Cc3ccc4c(c3)[nH]c(=O)c3[nH]ccc34)CC2)c(F)n1 [Example 99, 7-((4-(2-fluoro-6-(methylcarbamoyl)pyridin-3-yl)piperazin-1-yl)methyl)-3,5-dihydro-4H-pyrrolo[2,3-c]quinolin-4-one] | > 10000 | 53.8 | 5.94 | –
14 | CNC(=O)c1ccc(N2CCN(Cc3ccc4c([nH]c(=O)c5occc54)c3C)CC2)c(F)n1 [Example 103, 7-((4-(2-fluoro-6-(methylcarbamoyl)pyridin-3-yl)piperazin-1-yl)methyl)-6-methylfuro[2,3-c]quinolin-4(5H)-one] | 667 | 12.4 | 4.26 | –
15 | CNC(=O)c1ccc(N2CCN(Cc3cc4[nH]c(=O)c5occc5c4cc3C)CC2)c(F)n1 [Example 104, 7-((4-(2-fluoro-6-(methylcarbamoyl)pyridin-3-yl)piperazin-1-yl)methyl)-8-methylfuro[2,3-c]quinolin-4(5H)-one] | 487 | 32 | 5.85 | –

Other lines, results leading:

Row | IC50 [1] [nM] | IC50 (MDA-MB-436 cells; Homo sapiens, MDA-MB-436, […]) [nM] | IC50 [2] [nM] | IC50 (MDA-MB-436 cells) [nM] | Compound
16 | 273 | 1.56 | 0.53 | – | CNC(=O)c1ccc(N2CCN(Cc3ccc4c(c3)[nH]c(=O)c3ccoc34)CC2)cn1 [Example 118, 7-((4-(6-(methylcarbamoyl)pyridin-3-yl)piperazin-1-yl)methyl)furo[3,2-c]quinolin-4(5H)-one]
17 | 683 | 23.6 | 1.87 | – | CNC(=O)c1ccc(N2CCN(Cc3cc4[nH]c(=O)n5nccc5c4cc3F)CC2)c(F)n1 [Example 120, 8-((4-(2-fluoro-6-(methylcarbamoyl)pyridin-3-yl)piperazin-1-yl)methyl)-9-fluoropyrazolo[1,5-c]quinazolin-5(6H)-one]
18 | 931 | 1.04 | 1.77 | – | CNC(=O)c1ccc(N2CCN(Cc3cc(F)c4c(c3)[nH]c(=O)n3cc(C)nc43)CC2)c(C)n1 [Example 136, 8-((4-(2-methyl-6-(methylcarbamoyl)pyridin-3-yl)piperazin-1-yl)methyl)-2-methyl-10-fluoroimidazo[1,2-c]quinazolin-5(6H)-one]
19 | 266 | 6.85 | 2.16 | – | CNC(=O)c1ccc(N2CCN(Cc3cc(F)c4c(c3)[nH]c(=O)n3cc(C)nc43)CC2)c(F)n1 [Example 137, 8-((4-(2-fluoro-6-(methylcarbamoyl)pyridin-3-yl)piperazin-1-yl)methyl)-2-methyl-10-fluoroimidazo[1,2-c]quinazolin-5(6H)-one]
20 | 1210 | 1.19 | 0.5 | – | CNC(=O)c1ccc(N2CCN(Cc3ccc4c([nH]c(=O)c5cc(C)nn54)c3F)CC2)c(Cl)n1 [Example 151, 7-((4-(2-chloro-6-(methylcarbamoyl)pyridin-3-yl)piperazin-1-yl)methyl)-6-fluoro-2-methylpyrazolo[1,5-a]quinoxalin-4(5H)-one]
21 | 801 | 16.2 | 0.21 | – | CNC(=O)c1ccc(N2CCN(Cc3ccc4c([nH]c(=O)c5c(C)cnn54)c3F)C[C@H]2C)c(F)n1 [Example 166, (R)-6-fluoro-7-((4-(2-fluoro-6-(methylcarbamoyl)pyridin-3-yl)-3-methylpiperazin-1-yl)methyl)-3-methylpyrazolo[1,5-a]quinoxalin-4(5H)-one]
22 | 397 | 18.7 | 0.33 | – | CNC(=O)c1ccc2c(n1)OC[C@H]1CN(Cc3ccc4c([nH]c(=O)c5c(C)cnn54)c3F)CCN21 [Example 167, (R)-6-fluoro-3-methyl-7-((8-methylcarbamoyl-1,2,4a,5-tetrahydropyrazino[1,2-d]pyrido[2,3-b][1,4]oxazin-3(4H)-yl)methyl)pyrazolo[1,5-a]quinoxalin-4(5H)-one]
23 | 1390 | 0.79 | 0.28 | – | CNC(=O)c1ccc(N2CCN(Cc3ccc4c([nH]c(=O)c5c(F)cnn54)c3F)CC2)c(Cl)n1 [Example 178, 7-((4-(2-chloro-6-(methylcarbamoyl)pyridin-3-yl)piperazin-1-yl)methyl)-3,6-difluoropyrazolo[1,5-a]quinoxalin-4(5H)-one]
24 | 67.1 | 2.41 | 0.5 | – | CNC(=O)c1ccc(N2CCN(Cc3cc4[nH]c(=O)c5c(F)cnn5c4cc3F)CC2)c(Cl)n1 [Example 184, 7-((4-(2-chloro-6-(methylcarbamoyl)pyridin-3-yl)piperazin-1-yl)methyl)-3,8-difluoropyrazolo[1,5-a]quinoxalin-4(5H)-one]
25 | 431 | 0.78 | 0.24 | – | [2H]C([2H])([2H])NC(=O)c1ccc(N2CCN(Cc3ccc4c([nH]c(=O)c5c(F)cnn54)c3F)CC2)c(F)n1 [Example 185, 7-((4-(2-fluoro-6-((methyl-d3)carbamoyl)pyridin-3-yl)piperazin-1-yl)methyl)-3,6-difluoropyrazolo[1,5-a]quinoxalin-4(5H)-one]
26 | 17.9 | 1.11 | 0.16 | – | CNC(=O)c1ccc(N2CCN(Cc3ccc4c([nH]c(=O)c5c(Cl)c(C)nn54)c3F)CC2)c(F)n1 [Example 199, 6-fluoro-7-((4-(2-fluoro-6-(methylcarbamoyl)pyridin-3-yl)piperazin-1-yl)methyl)-2-methyl-3-chloropyrazolo[1,5-a]quinoxalin-4(5H)-one]
